ChEMBL document CHEMBL4308920, “Optimizing the Pharmacological Profile of New Bifunctional Antihyperlipidemic/Antioxidant Morpholine Derivatives” (ACS Med Chem Lett, 2019)

Tests used:
[1] = system: Liver; experiment: Antioxidant activity in rat hepatic microsomes assessed as reduction in ferrous salt/ascorbic acid-induced lipid peroxidation of membrane lipids by measuring TBARS level after 45 mins by spectrophotometric method; format: functional, Microsome; settings: 0.75 h
[2] = target: T1, Squalene synthase (Rattus norvegicus, UniProt Q02769); experiment: Inhibition of SQS in rat liver microsomes assessed as reduction in [3H]FPP conversion to squalene after 45 mins by liquid scintillation counting method
T1 sequence (Q02769 whole entry): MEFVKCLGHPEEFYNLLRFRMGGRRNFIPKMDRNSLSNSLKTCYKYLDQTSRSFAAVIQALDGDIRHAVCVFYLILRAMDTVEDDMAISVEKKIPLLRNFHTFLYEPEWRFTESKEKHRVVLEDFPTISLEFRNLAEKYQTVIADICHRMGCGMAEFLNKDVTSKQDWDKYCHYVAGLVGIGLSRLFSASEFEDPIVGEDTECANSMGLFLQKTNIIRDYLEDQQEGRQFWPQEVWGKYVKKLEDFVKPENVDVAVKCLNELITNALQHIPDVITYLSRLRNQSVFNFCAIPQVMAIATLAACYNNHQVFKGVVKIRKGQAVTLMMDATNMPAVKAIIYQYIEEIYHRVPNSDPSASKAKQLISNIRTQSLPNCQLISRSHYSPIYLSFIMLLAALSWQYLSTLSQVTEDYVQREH

[3] = target: T1, Squalene synthase; experiment: Inhibition of SQS in rat liver microsomes assessed as reduction in [3H]FPP conversion to squalene preincubated for 10 mins followed by [3H]FPP addition and measured after 10 mins by scintillation counting method
[4] = target: T2, Squalene synthase (Rattus norvegicus) (UniProt Q02769); experiment: Potency index, ratio of 2-(4-(6-methoxynaphthalen-2-yl)phenyl)-4-methylmorpholin-2-ol hydrobromide IC50 to compound IC50 for inhibition of SQS in rat liver microsomes
T2 sequence (whole entry): T1 sequence (Q02769 whole entry)

[5] = target: T2, Squalene synthase (Rattus norvegicus); experiment: Potency index, ratio of 2-(biphenyl-4-yl)-4-methylmorpholin-2-ol hydrobromide IC50 to compound IC50 for inhibition of SQS in rat liver microsomes
[6] = target: T2, Squalene synthase (Rattus norvegicus); experiment: Potency index, ratio of 4-methyl-2-(4-(naphthalen-2-yl)phenyl)morpholin-2-ol hydrobromide IC50 to compound IC50 for inhibition of SQS in rat liver microsomes
[7] = system: Mus musculus; experiment: In vivo antioxidant activity in C57BL/6 mouse model of Triton WR1339-induced hyperlipidemia assessed as increase in total antioxidant capacity in plasma at 84 umol/kg, ip measured after 24 hrs relative to control; format: functional
[8] = system: Mus musculus; experiment: Antihypercholesterolemic activity in C57BL/6 mouse model of Triton WR1339-induced hyperlipidemia assessed as reduction in plasma total cholesterol level at 84 umol/kg, ip measured after 24 hrs relative to control; format: functional; design: scale not given: the % may be the effect or the level left
[9] = system: Mus musculus; experiment: Anti-inflammatory activity in C57BL/6 mouse assessed as inhibition of carrageenan-induced hind paw edema at 300 umol/kg, ip treated immediately after carrageenan challenge measured after 3.5 hrs relative to control; format: functional; settings: C57BL/6, ip
[10] = system: Mus musculus; experiment: Antihyperlipidemic activity in C57BL/6 mouse model of Triton WR1339-induced hyperlipidemia assessed as reduction in plasma total triglyceride level at 84 umol/kg, ip measured after 24 hrs relative to control; format: functional; design: scale not given: the % may be the effect or the level left

SMILES | IC50 [1] | IC50 [3] | further results
CC(C)(Sc1cc(C(C)(C)C)c(O)c(C(C)(C)C)c1)Sc1cc(C(C)(C)C)c(O)c(C(C)(C)C)c1 [PROBUCOL] | > 500 µM | – | –
COc1cccc([C@H]2O[C@H](CC(=O)N3CCC(CC(=O)O)CC3)C(=O)N(CC(C)(C)COC(C)=O)c3ccc(Cl)cc32)c1OC [LAPAQUISTAT ACETATE] | – | – | IC50 [2]: 0.078 µM
CN1CCOC(OCCCO)(c2ccc(-c3ccccc3)cc2)C1 (centres undefined) | 333 µM | 24.9 µM | –
CN1CCOC(OCCCO[N+](=O)[O-])(c2ccc(-c3ccc4ccccc4c3)cc2)C1 (centres undefined) | 75.8 µM | 0.51 µM | –
COc1ccc2cc(-c3ccc(C4(OCCCO[N+](=O)[O-])CN(C)CCO4)cc3)ccc2c1 (centres undefined) | 45 µM | 16.1 µM | –
c1ccc(-c2ccc(C3CN4CCCCC4CO3)cc2)cc1 (centres undefined) | 179 µM | 7.5 µM | –
CN1CCSC(c2ccc3ccccc3c2)C1 (centres undefined) | 178 µM | 25.2 µM | –
COc1ccc2cc(-c3ccc(C4(OCCCO)CN(C)CCO4)cc3)ccc2c1 (centres undefined) | 211 µM | 29.4 µM | –
COc1ccc2cc(-c3ccc(C4(OCCCS)CN(C)CCO4)cc3)ccc2c1 (centres undefined) | 147 µM | 0.16 µM | Ratio IC50 [4]: < 136; Ratio IC50 [5]: < 136; Ratio IC50 [6]: < 136
CN1CCOC(c2ccc(-c3ccccc3)cc2)C1 (centres undefined) | 86.8 µM | > 100 µM | –
Br.CN1CCOC(OCCCS)(c2ccc(-c3ccc4ccccc4c3)cc2)C1 (centres undefined) | 198 µM | 0.014 µM | TAC [7]: 20%; Activity [8]: 67%; Ratio IC50 [4]: < 136; Ratio IC50 [5]: < 136; inhibition in vivo at 300 µmol/kg [9]: 40%; Ratio IC50 [6]: < 136; Activity [10]: 25%
Cc1c(C)c2c(c(C)c1O)CCC(C)(C(=O)O)O2 (centres undefined) [TROLOX] | 25 µM | – | –
CN1C=C(c2ccc(-c3ccccc3)cc2)OC2CCCCC21 (centres undefined) | 65.1 µM | 42 µM | –
CN1CCOC(OCCCO)(c2ccc(-c3ccc4ccccc4c3)cc2)C1 (centres undefined) | 259 µM | 6.2 µM | –
CN1CCSC(c2ccc(-c3ccccc3)cc2)C1 (centres undefined) | 299 µM | 15 µM | –
CN1CC(c2ccc(-c3ccccc3)cc2)OC2CCCCC21 (centres undefined) | 218 µM | 20.8 µM | –
CN1CCOC(OCCCS)(c2ccc(-c3ccccc3)cc2)C1 (centres undefined) | 372 µM | 2.7 µM | Ratio IC50 [4]: < 136; Ratio IC50 [5]: < 136; Ratio IC50 [6]: < 136
